{"source": "patent US6486209B2", "about": "“Use for 1,3-propanediol derivatives” (Novartis AG, priority 1996, dated 2002)", "key": {"[1]": {"system": "carotid artery allograft (DA donors, Lewis recipients)", "assay": "Prevention of graft vessel disease: carotid artery transplantation", "assay_type": "in vivo, rat", "conditions": "0.1 to 10 mg/kg alone or in combination with Cyclosporin A, 8 weeks, osmotic minipump s.c. or oral", "protocol": "A. Prevention of Graft Vessel Disease\nInbred rat strains DA (RT1^a, donors) and Lewis (RT1^1, recipients of allografts), weighing between 200 and 350 grams are used. The animals are allowed unrestricted access to food and water before and after the operation.\nCarotid artery transplantation:\nThe rats are anaesthetised with isofluorane (Abbott), (4-5% for induction, 1.5-2% for maintenance) and 300 μg atropin sulphate is injected subcutaneously following the induction. The left carotid artery is dissected free. The artery is clamped proximally and distally and a segment of about 7-10 mm is removed. The gap is bridged by an allograft which had also been subjected to 45 min cold ischemia. Ethilon 10/o sutures are used. Finally the skin is closed with 4/0 sutures. If needed, an Alzet osmotic minipump (Alza Corp. Palo Alto, Calif.) is then implanted subcutaneously over the back (alternatively the animals are treated orally).\nThe rats are subject to one of the following treatments: A compound of formula I alone at the doses of 0.1 to 10 mg/kg, or in combination with Cyclosporin A at the dose of 0.03, 0.3, or 1 mg.kg^−1·day^−1 is administered for 8 weeks either by using Alzet osmotic minipumps implanted subcutaneously or alternatively by oral administration. […]"}, "[2]": {"system": "Syrian hamster heart xenograft in rat", "assay": "In vivo heart xenotransplantation (hamster-to-rat)", "conditions": "5-30 mg/kg/day orally", "text": "B. In vivo heart xenotransplantation (hamster-to-rat)\nThe hamster-into-rat xenograft combination is a so-called difficult concordant combination. […] This is visualized in histology by destruction of blood vessels, exsudation and extravasation of erythrocytes, and influx by polymorphonuclear granulocytes; often there are signs of hemorrhage and thrombosis. Once this rejection has been overcome by effective inhibition of antibody synthesis or complement inactivation, a cellular rejection can emerge later on. This is visualized in histology by influx of mononuclear cells, including lymphocytes, lymphoblastoid cells, and macrophages, and destruction of the myocyte parenchyma. The inhibition of cellular rejection requires more immuno-suppression than that of allografts. Congenitally athymic (rnu/rnu) rats lack a competent (thymus-dependent) cellular immune system and generally are unable to reject allografts. Such animals do reject a hamster xenograft within 3-4 days in a similar fashion as euthymic rats, indicative that (at least part of) anti-hamster antibody synthesis in rats occurs following a thymus-independent B-cell response. […]\nThe graft is monitored daily by palpation of the abdomen. […] Animals are subjected to autopsy; apart from the graft, weight and histology is assessed for thymus, spleen, liver, seminal vesicles and testes. […]"}}, "data": [{"smiles": "CCCCCCCCc1ccc(CCC(N)(CO)CO)cc1", "note": "[Compound A, 2-amino-2-[2-(4-octylphenyl)ethyl]-1,3-propanediol]", "values": [{"measurement": "graft infiltration", "setting": "[1]", "result": "significantly inhibit"}, {"measurement": "neointima formation", "setting": "[1]", "result": "significantly inhibit"}, {"measurement": "graft survival", "setting": "[2]; athymic recipients", "result": "prolonged graft survival"}, {"measurement": "graft survival", "setting": "[2]; euthymic recipients", "result": "prolonged graft survival"}]}]}
